The test system of one assay is dwf5-1 plants. Description: biochemical complementation of dwf5-1 plants with brassinolide and its biosynthetic intermediates (pedicel length). It is filed as in vivo, Arabidopsis. The following applies: for dwf5 pedicel length compared to a water-treated control: exogenous application, pedicel length measured 7 days after application (n=15), FIG. 2. As to the method: Standard procedures for plant growth, measurements on floral organs, scoring the number of seeds in a silique, biochemical complementation tests with Brassinosteroids, analysis of endogenous Brassinosteroids, and 13C-labeled mevalonic acid feeding experiments have been described previously (Choe, et al., 1999b). […] The ability of Brassinosteroids to rescue the phenotype of dwf5 was tested. The data presented in FIG. 2 show the biochemical complementation of dwf5-1 plants with brassinolide (BL) and its biosynthetic intermediates. […] The length of pedicels was measured 7 days after application (n=15). Data points represent the average with one standard deviation. Further, the BR biosynthetic intermediate 6-deoxocathasterone (6-DeoxoCT), and the synthetic compound 22-hydroxycampesterol (22-OHCR) induced pedicel growth up to 80% of wild-type length.

Another assay concerns dwf5-1 seeds. Description: seed germination on agar-solidified Murashige and Skoog media. The following applies: germination media supplemented with 10^−7 M brassinolide; without it <60% of dwf5-1 seeds germinated vs >90% of wild type. It is filed as in vivo, Arabidopsis. The source says:
The reduced germination of dwf5 seeds may be a secondary effect of retarded growth, or possibly DWF5 is involved in seed development and/or germination.

`CC(C)[C@H](C)C[C@H](O)[C@@H](C)[C@H]1CC[C@H]2[C@@H]3CC[C@H]4C[C@@H](O)CC[C@]4(C)[C@H]3CC[C@]12C` [6-deoxocathasterone]: the “dwf5 pedicel length compared to a water-treated control” value in the assay on dwf5-1 plants is listed as “significant increases”.
Regarding `CC(C)[C@H](C)C[C@H](O)[C@@H](C)[C@H]1CC[C@H]2[C@@H]3CC=C4C[C@@H](O)CC[C@]4(C)[C@H]3CC[C@]12C` [22-hydroxycampesterol], in the assay on dwf5-1 plants, the “dwf5 pedicel length compared to a water-treated control” value is recorded as “significant increases”.
For the compound `CC(C)[C@H](C)[C@@H](O)[C@H](O)[C@@H](C)[C@H]1CC[C@H]2[C@@H]3COC(=O)[C@H]4C[C@H](O)[C@H](O)C[C@]4(C)[C@H]3CC[C@]12C` [brassinolide], the “correction of reduced germination of dwf5 seeds” value in the assay on dwf5-1 seeds is on record as “partially corrected”. Also, the “rescue of the length of dwf5 pedicels to that of wild type” value in the assay on dwf5-1 plants (BL application) was “completely rescued”. The “dwf5 pedicel length compared to a water-treated control” value with dwf5-1 plants was “significant increases”.

These data come from patent US20020120111A1, “Dwf5 mutants” (priority 2000, published 2002).
